Data taken from patent EP0111607A1, “Tropyl and pseudotropyl alkyl-benzoates and their use in migraine treatment” (MERRELL TORAUDE ET COMPAGNIE, priority 1982, dated 1984).

target: T1, 5-HT M-receptor (Oryctolagus cuniculus, UniProt G1TUQ4); test: pA2 against 5-HT in the isolated rabbit heart; settings: Table II, representative compounds of Formula I
T1 sequence (G1TUQ4 24-513): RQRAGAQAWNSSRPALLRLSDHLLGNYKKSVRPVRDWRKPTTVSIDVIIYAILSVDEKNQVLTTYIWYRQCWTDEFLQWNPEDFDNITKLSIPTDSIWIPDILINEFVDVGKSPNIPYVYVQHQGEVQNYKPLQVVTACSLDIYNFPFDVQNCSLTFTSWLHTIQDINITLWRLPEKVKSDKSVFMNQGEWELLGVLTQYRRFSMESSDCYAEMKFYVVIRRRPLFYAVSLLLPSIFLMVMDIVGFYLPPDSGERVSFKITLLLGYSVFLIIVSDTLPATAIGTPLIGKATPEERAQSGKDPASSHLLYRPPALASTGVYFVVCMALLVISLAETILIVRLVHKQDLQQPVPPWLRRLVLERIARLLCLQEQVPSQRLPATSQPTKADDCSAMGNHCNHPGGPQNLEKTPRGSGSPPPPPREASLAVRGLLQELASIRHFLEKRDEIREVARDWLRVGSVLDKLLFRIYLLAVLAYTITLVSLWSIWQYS
Protocol: The activity of the compounds against 5-HT can be assessed by determining their pA2 values in the isolated rabbit heart as described by Fozard et at Europ. J. Pharmacol. 59, 195-210 (1979). In the method described the molar concentration of antagonist which reduces the effects of twice the ED50 of 5-HT to that of the ED50 in the absence of antagonist is determined. The pA2 value is the negative logarithm of said molar concentrations.

| Structure (SMILES) | pA2 5-HT |
| --- | --- |
| Cc1ccc(C)c(C(=O)OC2CC3CCC(C2)N3C)c1 (stereo not shown) [tropyl 2,5-dimethylbenzoate] | 8.6 |
| Cc1ccccc1C(=O)OC1CC2CCC(C1)N2C (stereo not shown) [tropyl 2-methylbenzoate] | 8.1. |
| Cc1ccc(C(=O)OC2CC3CCC(C2)N3C)cc1C (stereo not drawn) [tropyl 3,4-dimethylbenzoate, 3,4-DIMET[…] ENDO-8-METHYL-8-AZABICYCLO[3,2,1]OCT-3-YL ESTER] | 8.2 |
| Cc1ccc(C(=O)OC2CC3CCC(C2)N3C)c(C)c1 (stereo not shown) [tropyl 2,4-dimethylbenzoate] | 8.8 |
| Cc1cc(C)cc(C(=O)OC2CC3CCC(C2)N3C)c1 (stereo not drawn) [pseudotropyl 3,5-dimethylbenzoate, 3,5-DIMETHYL-BENZOIC ACID EXO-8-METHYL-8-AZABICYCLO[3,2,1]OCT-3-YL ESTER] | 8.9 |

same assay, conditions: Table III, related compounds for comparative purposes

| Structure (SMILES) | pA2 5-HT |
| --- | --- |
| Cc1cccc(C(=O)OC2CC3CCC(C2)N3C)c1 (stereo not shown) [tropyl 3-methylbenzoate] | 8.1 |
| CN1C2CCC1CC(OC(=O)c1ccccc1)C2 (stereo not shown) [pseudotropyl benzoate] | 7.0 |
| CN1C2CCC1CC(OC(=O)c1ccc(Cl)c(Cl)c1)C2 (stereo not shown) [pseudotropyl-3,4-dichlorobenzoate] | 7.5 |
| CN1C2CCC1CC(OC(=O)c1ccc(Cl)cc1)C2 (stereo not shown) [pseudotropyl-4-chlorobenzoate] | 6.7 |

target: T1, 5-HT M-receptor; test: not given; settings: 5-HT M-receptor antagonism; reported by Fozard et al., Eur. J. Pharmacol. 59(1979) and 49(1978), same procedure; cited from earlier work

| Structure (SMILES) | pA2 |
| --- | --- |
| COC(=O)[C@H]1[C@@H](OC(=O)c2ccccc2)C[C@@H]2CC[C@H]1N2 [nor(-)cocaine] | 7.7 |
| CN1C2CCC1CC(OC(=O)c1ccccc1)C2 (stereo not shown) [pseudotropyl benzoate] | 7.0 |
| CN1[C@@H]2CC[C@H]1C[C@@H](OC(=O)c1ccccc1)C2 [tropyl benzoate] | 7.2 |
| CCN(CC)CCNC(=O)c1cc(Cl)c(N)cc1OC [metoclopramide] | 7.2 |

same assay, conditions: 5-HT M-receptor antagonism; tests referred to with European Patent Application No. 82401060.7; cited from earlier work

| Structure (SMILES) | pA2 |
| --- | --- |
| Cc1ccc(C(=O)O[C@H]2C[C@H]3CC[C@@H](C2)N3C)cc1 [tropyl 4-methylbenzoate] | 7.8 |
| COc1cc(OC)cc(C(=O)OC2CC3CCC(C2)N3C)c1 (stereo not shown) [pseudotropyl-3,5-dimethoxybenzoate] | 6.6 |
| CN1C2CCC1CC(OC(=O)c1ccc(Cl)c(Cl)c1)C2 (stereo not shown) [tropyl-3,4-dichlorobenzoate] | 7.8 |
| COc1ccc(C(=O)O[C@H]2C[C@H]3CC[C@@H](C2)N3C)cc1OC [tropyl 3,4-dimethoxybenzoate] | 7.2 |
| CN1C2CCC1CC(OC(=O)c1ccc(Cl)cc1)C2 (stereo not shown) [tropyl 4-chlorobenzoate] | 7.0 |
| COc1cc(C(=O)OC2CC3CCC(C2)N3C)cc(OC)c1OC (stereo not shown) [pseudotropyl-3,4,5-trimethoxybenzoate] | 5.7 |
